Test results: publication PMC4728068, “Mixture Effects of Estrogenic Pesticides at the Human Estrogen Receptor α and β” (PLoS ONE, 2016)
In brackets after ≈: the same amount, converted by molar mass.

Key:
hERβ = target: T1, hERβ (Homo sapiens, UniProt Q92731); experiment: ERβ CALUX assay (U2-OS cell-based luciferase reporter gene); conditions: for estrogenic activity at the hERβ in the ERβ CALUX assay (in words): applied alone; for ERβ CALUX EC01 / ERβ CALUX EC10: single substances; for ERβ CALUX EC01: 1% effect (of 1 nM E2); for ERβ CALUX EC10: 10% effect (of 1 nM E2)
T1 construct: expressed in transfected cells; host or cells: human U2-OS cells
T1 sequence (Q92731 whole entry): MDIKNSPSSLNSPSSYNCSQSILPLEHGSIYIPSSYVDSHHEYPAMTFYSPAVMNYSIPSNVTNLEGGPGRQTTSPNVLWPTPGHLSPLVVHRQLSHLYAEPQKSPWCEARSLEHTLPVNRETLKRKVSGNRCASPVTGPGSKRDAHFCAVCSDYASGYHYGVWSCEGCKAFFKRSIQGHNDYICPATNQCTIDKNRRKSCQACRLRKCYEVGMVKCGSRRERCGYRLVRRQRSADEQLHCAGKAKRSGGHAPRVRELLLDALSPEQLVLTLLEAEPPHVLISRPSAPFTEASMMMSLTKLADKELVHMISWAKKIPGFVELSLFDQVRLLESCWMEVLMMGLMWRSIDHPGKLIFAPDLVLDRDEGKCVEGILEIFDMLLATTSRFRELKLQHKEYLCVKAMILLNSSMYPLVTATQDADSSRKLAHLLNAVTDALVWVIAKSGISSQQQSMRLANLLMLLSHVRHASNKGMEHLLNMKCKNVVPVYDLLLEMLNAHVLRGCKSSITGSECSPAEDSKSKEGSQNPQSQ
Method: (§1) The ERα and ERβ CALUX assay were performed to evaluate the effect of the test substances on the hERα and hERβ as described by van der Burg et al. [21] with slight modifications. The pesticides were tested in three independent experiments, individually and as mixtures, in triplicates in 96-well plates. DMSO was used as solvent and was present in the test medium at a maximal concentration of 0.2% v/v. Solvent controls were included in each plate. […] The same plate also contained 3 μM 17α-methyltestosterone as additional estrogenic control as well as 10 nM corticosterone as negative control. […] A prescreen, in which all test substances were tested for estrogenicity between 0.01 μM and 60 μM, was performed. The three highest test substance concentrations and controls were checked for their ability to affect cell membrane integrity by quantification of the lactate dehydrogenase leakage (LDH) with the CytoTox-ONE™ Homogeneous Membrane Integrity Assay (Promega, Madison, WI, USA), which was performed as recommended by the manufacturer. Those test substance concentrations leading to a decline of the effect after a maximum was reached as well as those leading to insolubility were excluded from further experiments.
(§2) Normalized concentration-response data from the YES, ERα and ERβ CALUX assays were analyzed by nonlinear regression after the x-axis with the test substance concentrations was log-transformed. […] All mathematical/statistical analyses were performed using R version 3.1.2 (R Foundation for Statistical Computing, Vienna, Austria).

[1] = Insolubility in the YES assay medium (turbidity at 690 nm, cell-free control plate); conditions: for solubility: kinetic from dmso stock
From the text: (§3) It should be taken into account that an increased turbidity could also mask cytotoxicity.
The concentrations of the test substances to be tested were limited depending on their solubility. […] A decrease of turbidity in the YES assay was assumed to be equivalent to an inhibition of yeast cell growth.

[2] = target: T2, human estrogen receptor α (hERα) (Homo sapiens, UniProt P03372); experiment: Yeast-based estrogen screen (YES) assay, β-galactosidase reporter gene; format: cell-based; conditions: for YES EC01 / YES EC10: single substances; for YES EC01: concentration needed to elicit a 1% effect of 1 nM E2; for YES EC10: concentration needed to elicit a 10% effect of 1 nM E2
T2 construct: expressed in transfected cells
T2 sequence (P03372 whole entry): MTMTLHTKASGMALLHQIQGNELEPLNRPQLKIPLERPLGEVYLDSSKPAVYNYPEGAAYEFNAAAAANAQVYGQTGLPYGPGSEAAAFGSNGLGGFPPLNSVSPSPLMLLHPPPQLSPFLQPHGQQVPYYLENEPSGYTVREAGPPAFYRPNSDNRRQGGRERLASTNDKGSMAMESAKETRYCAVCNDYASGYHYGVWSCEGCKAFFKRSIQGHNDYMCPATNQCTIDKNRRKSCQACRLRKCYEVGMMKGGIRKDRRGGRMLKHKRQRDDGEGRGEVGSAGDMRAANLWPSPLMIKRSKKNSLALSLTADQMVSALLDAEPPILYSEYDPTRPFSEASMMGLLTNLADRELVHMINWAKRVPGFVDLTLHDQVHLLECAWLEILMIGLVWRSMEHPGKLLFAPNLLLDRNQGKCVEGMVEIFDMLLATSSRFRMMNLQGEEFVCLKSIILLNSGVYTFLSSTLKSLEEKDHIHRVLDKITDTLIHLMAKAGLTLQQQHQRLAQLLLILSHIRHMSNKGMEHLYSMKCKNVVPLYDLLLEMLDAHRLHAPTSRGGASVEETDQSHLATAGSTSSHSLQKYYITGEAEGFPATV
Method: as §3, §2

MCF-7 cells [3] = system: MCF-7 cells; design: method as in PMID 10789375; conditions: cited from earlier work
hERα [4] = target: T3, hERα (Homo sapiens, UniProt P03372); experiment: YES assay in combination with a saturating concentration of E2 (1 nM): anti-estrogenic or potentiating effects; format: cell-based, yeast; conditions: for maximum to which the effect of 1 nM E2 was enhanced: YES assay, combined with 1 nM E2, normalized to 1 nM E2; for effect when combined with 1 nM E2 in the YES assay (in words): saturating 1 nM E2
T3 sequence (P03372 whole entry): as above
Method: Each pesticide and pesticide mixture was tested in quadruplicate in at least five experiments.

hERα [5] = target: T3, hERα; experiment: ERα CALUX assay (U2-OS cell-based luciferase reporter gene); design: expressed in transfected cells; host or cells: human U2-OS cells; conditions: for ERα CALUX EC01: 1% effect (of 1 nM E2); for ERα CALUX EC10: 10% effect (of 1 nM E2)
Method: as §1, §2

MCF-7 cells [6] = conditions: cited from earlier work
miR-21 = conditions: cited from earlier work
yeast cells = experiment: Cytotoxicity in the YES assay (decrease in optical density/turbidity at 690 nm); format: cell-based; conditions: assumed equivalent to inhibition of yeast cell growth, data not shown
hERα [7] = target: T3, hERα; conditions: in combination with 3 pM E2
estrogen receptor = system: estrogen receptor; design: method as in PMID 11884232; conditions: in combination with a saturating concentration of E2; cited from earlier work
MCF-7 cells [8] = conditions: with or without E2; 27 (pirimicarb), ref 11 (propamocarb); cited from earlier work

| Structure (SMILES) | estrogenic activity at the hERβ in the ERβ CALUX assay (in words) (hERβ) | ERβ CALUX EC01 (hERβ) | ERβ CALUX EC10 (hERβ) | YES EC01 [2] | solubility [1] | ERα CALUX EC01 (hERα [5]; single substances) | ERα CALUX EC10 (hERα [5]; single substances) | further results |
| --- | --- | --- | --- | --- | --- | --- | --- | --- |
| Clc1ccc(C(c2ccccc2Cl)C(Cl)(Cl)Cl)cc1 (stereo not shown) [2,4’-DDT, 2,4’-dichlorodiphenyltrichloroethane] | dose-dependent estrogenic activity | 0.055 µM | 0.603 µM |  |  |  |  |  |
| Clc1ccc(C(c2ccc(Cl)cc2)C(Cl)(Cl)Cl)cc1 [4,4’-DDT, 4,4’- dichlorodiphenyltrichloroethane] | dose-dependent estrogenic activity | 1.02 µM |  |  |  |  |  | concentrations leading to insolubility (tested in the YES assay) ([1]; YES assay medium): 50 to 500 µM |
| CCOP(=S)(OCC)Oc1nc(Cl)c(Cl)cc1Cl [chlorpyrifos] |  |  |  | 79.4 nM | 100 to 1000 µM (≈ 35.1 to 351 µg/mL) | 617 nM | 3.47 µM | effect in MCF-7 proliferation assay compared with E2 (MCF-7 cells [3]): without exceeding the effect of E2; maximum to which the effect of 1 nM E2 was enhanced (hERα [4]): 1.84 |
| OC(c1ccc(Cl)cc1)(c1cncnc1)c1ccccc1Cl (stereo not shown) [fenarimol] | dose-dependent estrogenic activity | 3.63 µM | 13.5 µM | 11700 nM |  | 794 nM | 2.82 µM | maximum effect normalized to the effect of 1 nM E2 ([2]; single substance, YES assay): 2.69; YES EC10 [2]: 21.9 µM; effect in MCF-7 proliferation assay compared with E2 (MCF-7 cells [3]): without exceeding the effect of E2; maximum to which the effect of 1 nM E2 was enhanced (hERα [4]): 4.36; maximum effect relative to the effect of 0.1 nM E2 (hERα [5]; single substances, ERα CALUX assay): 1.17 |
| CC1(C(=O)Nc2ccc(O)c(Cl)c2Cl)CCCCC1 [fenhexamid] | dose-dependent estrogenic activity | 1.17 µM | 5.01 µM |  | 100 µM (≈ 30.2 µg/mL) |  |  | E2-induced cell proliferation in MCF-7 cells (MCF-7 cells [6]): inhibition of E2-induced cell proliferation; miR-21 expression in breast cancer cells (miR-21): increase of miR-21 expression; concentrations decreasing turbidity by more than 30% in comparison to the solvent control (yeast cells): ≥ 500 µM |
| N#Cc1c[nH]cc1-c1cccc2c1OC(F)(F)O2 [fludioxonil] |  |  |  | 832 nM | 100 to 500 µM (≈ 24.8 to 124 µg/mL) | 363 nM | 1.26 µM | E2-induced cell proliferation in MCF-7 cells (MCF-7 cells [6]): inhibition of E2-induced cell proliferation; YES EC10 [2]: 26.3 µM; inhibition of the E2 effect in the YES assay (hERα [4]; in combination with 1 nM E2): 44%; effect when combined with 1 nM E2 in the YES assay (in words) (hERα [4]): concentration-dependent anti-estrogenic effects; miR-21 expression in breast cancer cells (miR-21): increase of miR-21 expression; anti-estrogenic effect in the ERα CALUX assay (in words) (hERα [7]): an anti-estrogenic effect was not observed |
| Cc1nc(N(C)C)nc(OC(=O)N(C)C)c1C [pirimicarb] |  |  |  |  |  |  |  | effect in transactivation assay with MCF-7 BOS cells (estrogen receptor): induced a stronger effect; estrogenic activity in the YES assay (in words) ([2]; applied alone): negative; proliferation of MCF-7 cells in the E-Screen (MCF-7 cells [8]): did not stimulate the proliferation of MCF-7 cells; effect when combined with 1 nM E2 in the YES assay (in words) (hERα [4]): negative; estrogenic activity in the ERα CALUX assay (in words) (hERα [5]; applied alone): negative |
| CCCOC(=O)NCCCN(C)C [propamocarb] |  |  |  |  |  |  |  | proliferation of MCF-7 cells in the E-Screen (MCF-7 cells [8]): did not stimulate the proliferation of MCF-7 cells |
